We go through 18 molecules from US20220169654A1, “New Organic Compounds” (Servier Pharmaceuticals LLC, priority 2020, published 2022).

One assay has as its system HCT116 MTAP+/+. The assay is described as follows: Inhibition of cellular proliferation, 4 days, Cell Titer Glo, HCT116 MTAP+/+. It counts as cell-based. As to conditions: Homo sapiens, HCT-116, 96 h, IC50 bin with Max Inh., read-out: 4 Day Relative Growth Inhibition (MTAP +/+). The essentials: (§1)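 Isogenic HCT116 pair differing only in MTAP status, plated 24 h before treatment with 10-point 3-fold dilutions; 4 days at 37° C./5% CO2. Cell Titer Glo luminescence, blank-subtracted and normalised to 0.2% DMSO control, gives percentage proliferation vs log molar concentration for IC50.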
On the technique in general: Cellular ATP, detected with luciferase, serves as a proxy for viable cell number.

The target of the next assay is T1, MAT2A homodimer (Homo sapiens, UniProt P31153).
T1 construct: inferred from Ni sepharose purification with imidazole elution; made in house; host or cells: Sf9 insect cells, baculovirus (Bac to Bac, pFASTBAC1)
The assay is described as follows: MAT2A inhibition (biochemical, liberated phosphate, PiColorLock Gold). As to conditions: recombinant MAT2A homodimer; IC50 bin with Max Inh.; read-out: Enzyme Inhibition Bin. The essentials:
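Baculovirus/Sf9-expressed, Ni-purified MAT2A (4 μg/mL) preincubated with compound 60 min at 25 °C in Tris pH 8.0/KCl/MgCl2 buffer. Reaction started with 500 μM ATP and 400 μM L-methionine (substrate-mix concentrations), run 60 min at 25 °C. Phosphate measured colorimetrically against a phosphate standard curve to give IC50.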

Another assay deals with HCT116 MTAP−/−. The assay is described as follows: Inhibition of cellular proliferation, 4 days, Cell Titer Glo, HCT116 MTAP−/−. The format is cell-based. Particulars: Homo sapiens, HCT-116, 96 h, IC50 bin with Max Inh., read-out: 4 Day Relative Growth Inhibition (MTAP −/−). The gist of the method:
as §1

The subject of assay [1] is SAM in HCT116 human colon carcinoma cell line with MTAP gene deleted (MTAP −/−). The assay is described as follows: Cellular assay of target engagement (SAM), LC-MS/MS, 72 hrs. It counts as cell-based. As to conditions: HCT-116, IC50 bin with Max Inh., read-out: Cell 72 h SAM Inhibition (MTAP −/−). The essentials: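 MTAP-deleted HCT116 cells plated 24 h, then given 10-point 3-fold dilutions for 72 hrs at 37° C. Intracellular SAM extracted in cold 80% methanol with 1M acetic acid and d3-SAM standard, quantified by LC-MS/MS (MRM m/z 399.2→250.1); IC50 derived.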

Structures are written as SMILES.

T1 sequence (P31153 whole entry): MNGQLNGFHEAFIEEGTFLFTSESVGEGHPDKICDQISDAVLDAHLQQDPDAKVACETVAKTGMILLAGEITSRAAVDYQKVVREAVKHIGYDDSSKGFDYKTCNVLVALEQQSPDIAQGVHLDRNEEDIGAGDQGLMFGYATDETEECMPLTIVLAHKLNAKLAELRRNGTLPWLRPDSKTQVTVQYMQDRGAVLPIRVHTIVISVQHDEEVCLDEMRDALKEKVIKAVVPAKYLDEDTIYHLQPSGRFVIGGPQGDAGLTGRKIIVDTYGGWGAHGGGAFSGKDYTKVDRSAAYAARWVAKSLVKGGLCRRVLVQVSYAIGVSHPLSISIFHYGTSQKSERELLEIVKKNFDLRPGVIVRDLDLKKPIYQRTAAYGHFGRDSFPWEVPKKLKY

Regarding `CC(C)c1ccc(-c2c(=O)n(-c3ccc4nn(C)cc4c3)nc3ccn(CC4CC4)c23)cn1` [Example 129, 5-(cyclopropylmethyl)-4-(6-isopropylpyridin-3-yl)-2-(2-methyl-2H-indazol-5-yl)-2,5-dihydro-3H-pyrrolo[3,2-c]pyridazin-3-one], the IC50 with HCT116 MTAP+/+ was more than 1000 nM; at MAT2A homodimer, less than 100 nM; with HCT116 MTAP−/− it was less than 100 nM; in assay [1], 100 to 1000 nM.

As to `Cn1cc2cc(-n3nc4c(C#N)cn(CC5CC5)c4c(-c4ccc5[nH]cc(C#N)c5c4)c3=O)ccc2n1` [Example 130, 4-(3-cyano-1H-indol-5-yl)-5-(cyclopropylmethyl)-2-(2-methyl-2H-indazol-5-yl)-3-oxo-3,5-dihydro-2H-pyrrolo[3,2-c]pyridazine-7-carbonitrile], the IC50 with HCT116 MTAP+/+ is more than 1000 nM; on MAT2A homodimer it was less than 100 nM; with HCT116 MTAP−/−, 100 to 1000 nM; in assay [1], less than 100 nM.

Consider `[2H]C([2H])([2H])Oc1ccc(-n2nc3c(C#N)cn(CC4CC4)c3c(-c3ccc(C)nc3)c2=O)cc1` [Example 131, 5-(cyclopropylmethyl)-2-(4-(methoxy-d3)phenyl)-4-(6-methylpyridin-3-yl)-3-oxo-3,5-dihydro-2H-pyrrolo[3,2-c]pyridazine-7-carbonitrile], for which the IC50 was more than 1000 nM in the assay on HCT116 MTAP+/+, less than 100 nM at MAT2A homodimer, 100 to 1000 nM in the assay on HCT116 MTAP−/− and less than 100 nM in assay [1].

In the case of `[2H]C([2H])([2H])Oc1ccc(-n2nc3ccn(CC4CC4)c3c(-c3ccc(C(F)F)nc3)c2=O)cc1` [Example 132, 5-(cyclopropylmethyl)-4-(6-(difluoromethyl)pyridin-3-yl)-2-(4-(methoxy-d3)phenyl)-2,5-dihydro-3H-pyrrolo[3,2-c]pyridazin-3-one], the IC50 is more than 1000 nM in the assay with HCT116 MTAP+/+, less than 100 nM on MAT2A homodimer, 100 to 1000 nM in the assay on HCT116 MTAP−/− and 100 to 1000 nM in assay [1].

As to `Cn1cc2cc(-n3nc4c(C#N)cn(CC(F)(F)F)c4c(-c4ccc(C5CC5)nc4)c3=O)ccc2n1` [Example 133, 4-(6-cyclopropylpyridin-3-yl)-2-(2-methyl-2H-indazol-5-yl)-3-oxo-5-(2,2,2-trifluoroethyl)-3,5-dihydro-2H-pyrrolo[3,2-c]pyridazine-7-carbonitrile], the IC50 in the assay on HCT116 MTAP+/+ was more than 1000 nM; on MAT2A homodimer it was less than 100 nM; with HCT116 MTAP−/− it was 100 to 1000 nM; in assay [1] it was 100 to 1000 nM.

`[2H]C([2H])([2H])Oc1ccc(-n2nc3ccn(CC4CC4)c3c(-c3ccc(C)nc3)c2=O)cc1` [Example 134, 5-(cyclopropylmethyl)-2-(4-(methoxy-d3)phenyl)-4-(6-methylpyridin-3-yl)-2,5-dihydro-3H-pyrrolo[3,2-c]pyridazin-3-one]: the IC50 in the assay on HCT116 MTAP+/+ was more than 1000 nM; at MAT2A homodimer, less than 100 nM; with HCT116 MTAP−/−, 100 to 1000 nM; in assay [1], less than 100 nM.

`CCc1ccc(-c2c(=O)n(-c3ccc4nn(C)cc4c3)nc3ccn(CC4CC4)c23)cn1` [Example 135, 5-(cyclopropylmethyl)-4-(6-ethylpyridin-3-yl)-2-(2-methyl-2H-indazol-5-yl)-2,5-dihydro-3H-pyrrolo[3,2-c]pyridazin-3-one]: the IC50 with HCT116 MTAP+/+ is 100 to 1000 nM; on MAT2A homodimer, less than 100 nM; in the assay with HCT116 MTAP−/− it was less than 100 nM; in assay [1], less than 100 nM.

Take `CCc1ccc(-c2c(=O)n(-c3ccc4nn(C)cc4c3)nc3c(C#N)cn(CC4CC4)c23)cn1` [Example 136, 5-(cyclopropylmethyl)-4-(6-ethylpyridin-3-yl)-2-(2-methyl-2H-indazol-5-yl)-3-oxo-3,5-dihydro-2H-pyrrolo[3,2-c]pyridazine-7-carbonitrile]: the IC50 was 100 to 1000 nM in the assay with HCT116 MTAP+/+, less than 100 nM on MAT2A homodimer, less than 100 nM in the assay on HCT116 MTAP−/− and less than 100 nM in assay [1].

`[2H]C([2H])([2H])Oc1ccc(-n2nc3c(C#N)cn(CC4CC4)c3c(-c3ccc(C(F)F)nc3)c2=O)cc1` [Example 137, 5-(cyclopropylmethyl)-4-(6-(difluoromethyl)pyridin-3-yl)-2-(4-(methoxy-d3)phenyl)-3-oxo-3,5-dihydro-2H-pyrrolo[3,2-c]pyridazine-7-carbonitrile]: the IC50 is more than 1000 nM in the assay on HCT116 MTAP+/+, less than 100 nM on MAT2A homodimer, 100 to 1000 nM in the assay with HCT116 MTAP−/− and 100 to 1000 nM in assay [1].

On to `Cn1cc2cc(-n3nc4c(C#N)cn(CC5CC5)c4c(-c4ccc(C5CC5)cc4)c3=O)ccc2n1` [Example 138, 5-(cyclopropylmethyl)-4-(4-cyclopropylphenyl)-2-(2-methyl-2H-indazol-5-yl)-3-oxo-3,5-dihydro-2H-pyrrolo[3,2-c]pyridazine-7-carbonitrile], for which the IC50 in the assay with HCT116 MTAP+/+ was more than 1000 nM; on MAT2A homodimer, less than 100 nM; with HCT116 MTAP−/− it was less than 100 nM; in assay [1], less than 100 nM.

As for `Cn1cc2cc(-n3nc4c(C#N)cn(CC5CC5)c4c(-c4ccc(Cl)cc4)c3=O)ccc2n1` [Example 139, 4-(4-chlorophenyl)-5-(cyclopropylmethyl)-2-(2-methyl-2H-indazol-5-yl)-3-oxo-3,5-dihydro-2H-pyrrolo[3,2-c]pyridazine-7-carbonitrile], the IC50 (in the assay on HCT116 MTAP+/+; on MAT2A homodimer; with HCT116 MTAP−/−; in assay [1]) was less than 100 nM each time.

With `Cc1nc2ccc(-n3nc4ccn(CC5CC5)c4c(-c4ccc(C(F)F)nc4)c3=O)cc2n1C` [Example 140, 5-(cyclopropylmethyl)-4-(6-(difluoromethyl)pyridin-3-yl)-2-(1,2-dimethyl-1H-benzo[d]imidazol-6-yl)-2,5-dihydro-3H-pyrrolo[3,2-c]pyridazin-3-one], the IC50 in the assay on HCT116 MTAP+/+ was 100 to 1000 nM; on MAT2A homodimer, less than 100 nM; in the assay with HCT116 MTAP−/−, less than 100 nM; in assay [1], less than 100 nM.

Consider `Cc1ccc(-c2c(=O)n(-c3ccc4nc(C)n(C)c4c3)nc3ccn(CC4CC4)c23)cn1` [Example 141, 5-(cyclopropylmethyl)-2-(1,2-dimethyl-1H-benzo[d]imidazol-6-yl)-4-(6-methylpyridin-3-yl)-2,5-dihydro-3H-pyrrolo[3,2-c]pyridazin-3-one], for which the IC50 in the assay on HCT116 MTAP+/+ is 100 to 1000 nM; on MAT2A homodimer, less than 100 nM; in the assay on HCT116 MTAP−/−, less than 100 nM; in assay [1], less than 100 nM.

Regarding `CCc1ccc(-c2c(=O)n(-c3ccc4nc(C)n(C)c4c3)nc3ccn(CC4CC4)c23)cn1` [Example 142, 5-(cyclopropylmethyl)-2-(1,2-dimethyl-1H-benzo[d]imidazol-6-yl)-4-(6-ethylpyridin-3-yl)-2,5-dihydro-3H-pyrrolo[3,2-c]pyridazin-3-one], the IC50 was more than 1000 nM in the assay with HCT116 MTAP+/+, less than 100 nM at MAT2A homodimer, less than 100 nM in the assay with HCT116 MTAP−/− and less than 100 nM in assay [1].

With `Cn1cc2cc(-n3nc4c(C#N)cn(CC5CC5)c4c(-c4ccc(C(F)F)nc4)c3=O)ccc2n1` [Example 143, 5-(cyclopropylmethyl)-4-(6-(difluoromethyl)pyridin-3-yl)-2-(2-methyl-2H-indazol-5-yl)-3-oxo-3,5-dihydro-2H-pyrrolo[3,2-c]pyridazine-7-carbonitrile], the IC50 in the assay on HCT116 MTAP+/+ is 100 to 1000 nM; on MAT2A homodimer it was less than 100 nM; in the assay on HCT116 MTAP−/−, less than 100 nM; in assay [1], less than 100 nM.

With `CNC(=O)c1ccc(-c2c(=O)n(-c3ccc4nn(C)cc4c3)nc3ccn(CC4CC4)c23)cn1` [Example 144, 5-(5-(cyclopropylmethyl)-2-(2-methyl-2H-indazol-5-yl)-3-oxo-3,5-dihydro-2H-pyrrolo[3,2-c]pyridazin-4-yl)-N-methylpicolinamide], the IC50 was more than 1000 nM in the assay with HCT116 MTAP+/+, 100 to 1000 nM on MAT2A homodimer, more than 1000 nM with HCT116 MTAP−/− and 100 to 1000 nM in assay [1].

Turning to `CCCn1cc(C#N)c2nn(-c3ccc4nn(C)cc4c3)c(=O)c(-c3ccc(C)nc3)c21` [Example 145, 2-(2-methyl-2H-indazol-5-yl)-4-(6-methylpyridin-3-yl)-3-oxo-5-propyl-3,5-dihydro-2H-pyrrolo[3,2-c]pyridazine-7-carbonitrile], the IC50 in the assay with HCT116 MTAP+/+ was 100 to 1000 nM; on MAT2A homodimer, less than 100 nM; with HCT116 MTAP−/− it was 100 to 1000 nM; in assay [1], 100 to 1000 nM.

With `Cc1nc2ccc(-n3nc4c(C#N)cn(CC5CC5)c4c(-c4ccc(C(F)F)nc4)c3=O)cc2n1C` [Example 147, 5-(cyclopropylmethyl)-4-(6-(difluoromethyl)pyridin-3-yl)-2-(1,2-dimethyl-1H-benzo[d]imidazol-6-yl)-3-oxo-3,5-dihydro-2H-pyrrolo[3,2-c]pyridazine-7-carbonitrile], the IC50 in the assay on HCT116 MTAP+/+ was 100 to 1000 nM; on MAT2A homodimer, less than 100 nM; with HCT116 MTAP−/−, less than 100 nM; in assay [1], less than 100 nM.
